Test results as given in US20150086986A1, “METHOD TO PREDICT THE PRESENCE OF INFLAMMATION OR ITACONIC ACID, IRG1 AND/OR PROTEIN IRG1 IN A SUBJECT AND PHARMACEUTICAL COMPOSITION FOR TREATING OR PREVENTING INFLAMMATION” (priority 2011, published 2015).

Columns and labels:
[1] = Cis-aconitate decarboxylase (CAD) activity assay of purified Flag-IRG1; assay type: biochemical, Mus musculus; settings: peak activity fraction; 1 mM cis-aconitate, 30° C., 40 min, pH 7.1
Method: HEK293T cells were extracted 48 hours after transfection by scraping them into a lysis buffer containing 25 mM Hepes, pH 7.1 and 1× protease inhibitor cocktail (Roche). After two freeze/thaw cycles, cell extracts were incubated for 30 min on ice in the presence of DNAse I (200 U/ml extract; Roche Applied Science) and 10 mM MgSO4. The crude cell extracts were centrifuged for 5 min at 16000×g (4° C.) and pellets were resuspended in lysis buffer for SDS-PAGE analysis. Flag-IRG1 was purified from the supernatant using the Flag®M purification kit, according to the manufacturer's instructions (Sigma Aldrich). […] Protein concentration was measured by the Bradford assay using Bradford reagent (Bio-Rad).
Cis-aconitate decarboxylase activity was measured by incubating cell extracts or purified protein fractions (10 μl) at 30° C. and for 40 min in a reaction mixture containing 25 mM Hepes, pH 7.1 and 1 mM cis-aconitate in a total volume of 100 μl. […] The dry residue was derivatized and itaconic acid was quantified by GC-MS as described below. Itaconic acid concentrations were calculated by comparing the corresponding GC/MS signals obtained in samples with the one obtained after injection of known amounts of itaconic acid standards. […]
Cis-aconitate decarboxylase activity was measured in cell extracts and purification fractions. […]

Streptococcus pyogenes = assay: Bacterial phagocytosis and killing assay in siRNA-transfected RAW264.7 macrophages infected with S. pyogenes; assay type: cell-based; settings: streptococci compared with Salmonella
Method: Bacterial phagocytosis and killing assay were conducted to test the influence of the uptake of S. pyogenes by transfected (siRNA IRG1) mouse macrophages (RAW264.7 cell line) after 1 h, 2 h and 4 h of incubation.
Transfected RAW264.7 macrophages (with unspecific siRNA or IRG1 specific siRNA) were infected with Streptococcus pyogenes strain A20 at a multiplicity of infection (MOI) of 10:1 (10 bacteria per macrophage) and incubated for 1 h at 37° C., 5% CO2. Macrophages were then washed with sterile PBS, resuspended in complete medium containing […] gentamicin to kill non ingested bacteria and further incubated for 2 h at 37° C., 5% CO2. Macrophages were then disrupted with dH2O to release intracellular bacteria (this was considered time 0 h relative to gentamicin treatment) or 1, 2, 4 h later (this was considered time 1, 2, 4 h relative to gentamicin treatment) and the amount of viable intracellular bacteria was determined by plating on blood agar.
RAW264.7 cells were transfected with either siRNA specific for IRG1 or with siRNA Ctr. […] Macrophages were then disrupted with H2O to release intracellular bacteria and the amount of viable intracellular bacteria was determined by plating on blood agar. […]

[2] = tested on: bacterial isocytrate lyase (ICL); settings: literature reports; cited from earlier work
[3] = tested on: Salmonella enterica serovar Typhimurium; assay: S. enterica growth in liquid minimal medium with acetate as unique carbon source; assay type: cell-based
Method: To directly investigate the effect of itaconic acid on bacterial replication, S. enterica was grown in liquid minimal medium supplemented with acetate as the unique carbon source and various concentrations of itaconic acid. […] S. enterica was grown in liquid medium with acetate as unique carbon source in the presence of increasing concentrations of itaconic acid (5, 10, 50, 100 mM). The optical density (OD) was measured every hour to record the bacterial growth. Curves are calculated in % relative to time 0 and represent the mean of three independent experiments.

Row | Molecule | CAD specific activity [1] | antimicrobial effect of itaconic acid (Streptococcus pyogenes) | inhibition of isocitrate lyase [2] | itaconic acid concentration with significant effect on growth inhibition ([3]; 5, 10, 50, 100 mM tested, OD every hour) | bacterial growth inhibition ([3]; increasing concentrations of itaconic acid)
1 | Flag-IRG1: FLAG-tagged IRG1 protein purified from HEK293T cells transfected with a pCMV6-Entry-IRG1 expression plasmid | about 40 nmol min^−1 mg protein^−1 |  |  |  | 
2 | C=C(CC(=O)O)C(=O)O [itaconic acid] |  | less pronounced in streptococci than in Salmonella | inhibits | higher than 10 mM | dose-dependent growth inhibition
